Reference: patent WO2018160794A1, “Epha2-targeted docetaxel -generating liposomes in combination with an agent that impedes regulatory t cell activity for treating cancer” (dated 2018)

Tests used:
EMT-6 [1] = experiment: In vivo antitumor efficacy in EMT-6 model versus free docetaxel (Example 3); design: species or system mouse; conditions: EMT-6, Example 3
EMT-6 [2] = experiment: In vivo tumor growth inhibition in EMT-6 model versus dose-dense and standard docetaxel (Example 6); design: species or system mouse; conditions: EMT-6, Example 6; docetaxel 3.33 mg/kg three times a week (DTX-DD); Figure 7A
T cells in EMT-6 tumors = experiment: FACS of immune cell infiltrate in EMT-6 tumors versus dose-dense and standard docetaxel (Example 6); type: in vivo, mouse; conditions: EMT-6, Example 6
MC38 = experiment: In vivo antitumor efficacy in MC38 colon cancer model (Example 8); design: species or system mouse; conditions: MC38, C57BL6/J mice; days after treatment initiation; Figure 9B

## CC(=O)O[C@@]12CO[C@@H]1C[C@H](O)[C@@]1(C)C(=O)[C@H](O)C3=C(C)[C@@H](OC(=O)[C@H](O)[C@@H](NC(=O)OC(C)(C)C)c4ccccc4)C[C@@](O)([C@@H](OC(=O)c4ccccc4)[C@H]21)C3(C)C [docetaxel]
EMT-6 [1]
  tumor regression: no tumor regression
EMT-6 [1]; monotherapy, PD-1 10 mg/kg twice weekly, docetaxel 10 mg/kg q1w
  growth arrest: minimal growth arrest
EMT-6 [2]
  tumor growth inhibition (in words): improved growth inhibition relative to DTX-MTD, but it did not recapitulate the inhibition observed in 46scFv-ILs-DTXp3 treatment
T cells in EMT-6 tumors; dose-dense docetaxel (DTX-DD), 3.33 mg/kg three times a week
  effect on intratumoral immune cell populations: Neither the dose-dense (DTX-DD) nor the weekly (DTX-MTD) docetaxel treatment groups were observed to affect these intratumoral immune cell populations
T cells in EMT-6 tumors; weekly docetaxel (DTX-MTD), 10 mg/kg once a week
  effect on intratumoral immune cell populations: Neither the dose-dense (DTX-DD) nor the weekly (DTX-MTD) docetaxel treatment groups were observed to affect these intratumoral immune cell populations
MC38
  median survival: 16 days
